In PubChem BioAssay AID190 (DTP/NCI, 2004) one finds T/C data, which are given here for four compounds.

The test system of this experiment is AKR/Lw mice, AKR lymphoma ip, median survival T/C. In words: NCI In Vivo Anticancer Drug Screen. Data for tumor model Lymphoma AKR (Transplanted) (intraperitoneal) in AKR/Lw mice. As to conditions: endpoint: median survival time, higher = longer survival. On the procedure: The antitumor activity of compounds was measured in mice bearing transplantable tumors. Survival or tumor size were measured and the results are expressed as the measurement made in the treated group (T) divided by the measurement made in the vehicle treated control group (C). The tumor model used in this assay is Lymphoma AKR (Transplanted) (intraperitoneal) in AKR/Lw mice

The mark [1] stands for this setting: dose: 10.0 mg/kg/injection, schedule: Q04DX003 (ip), vehicle: saline.
Setting [2] is: dose: 12.0 mg/kg/injection, schedule: Q01DX001 (ip), vehicle: saline.

Where “and” joins values, the source holds several entries; their conditions need not be identical. Equal entries are not always repeated. Inconclusive results and toxic doses are left out.

As to `Nc1ncn(C2OC(CO)C(O)C2O)c(=O)n1` (stereo not given), the T/C (dose: 0.06 mg/kg/injection, schedule: Q04DX008 (ip), vehicle: saline) was 116 % of control; the T/C (dose: 0.12 mg/kg/injection, schedule: Q04DX004 (ip), vehicle: saline) was 109 % of control; the T/C (dose: 0.25 mg/kg/injection, schedule: Q04DX004 (ip), vehicle: saline) is 118 % of control; the T/C (dose: 0.38 mg/kg/injection, schedule: Q04DX003 (ip), vehicle: saline) was 88 % of control; the T/C (dose: 0.5 mg/kg/injection, schedule: Q04DX008 (ip), vehicle: saline) was 180 % of control; the T/C (dose: 0.75 mg/kg/injection, schedule: Q01DX009 (ip), vehicle: water) was 240 % of control. For the same compound, the T/C is, setting by setting: (dose: 1.0 mg/kg/injection, schedule: Q04DX004 (ip), vehicle: saline) 152 % of control; (dose: 1.0 mg/kg/injection, schedule: Q04DX008 (ip), vehicle: saline) 155 % of control; (dose: 1.5 mg/kg/injection, schedule: Q01DX009 (ip), vehicle: saline) 92 % of control; (dose: 1.5 mg/kg/injection, schedule: Q01DX009 (ip), vehicle: water) 153 % of control; (dose: 2.0 mg/kg/injection, schedule: Q04DX004 (ip), vehicle: saline) 185 % of control; (dose: 2.0 mg/kg/injection, schedule: Q04DX008 (ip), vehicle: saline) 159 % of control. The T/C reads like this: (dose: 2.5 mg/kg/injection, schedule: Q01DX001 (ip), vehicle: saline) 95 % of control and 114 % of control; (dose: 2.5 mg/kg/injection, schedule: Q04DX003 (ip), vehicle: saline) 122 % of control; (dose: 3.0 mg/kg/injection, schedule: Q01DX009 (ip), vehicle: water) 265 % of control; (dose: 3.0 mg/kg/injection, schedule: Q04DX004 (ip), vehicle: saline) 150 % of control and 252 % of control; (dose: 3.0 mg/kg/injection, schedule: Q04DX008 (ip), vehicle: saline) 150 % of control; (dose: 4.4 mg/kg/injection, schedule: Q04DX004 (ip), vehicle: saline) 163 % of control and 223 % of control. The T/C reads like this: (dose: 4.4 mg/kg/injection, schedule: Q04DX008 (ip), vehicle: saline) 166 % of control and 180 % of control; (dose: 5.0 mg/kg/injection, schedule: Q04DX003 (ip), vehicle: saline) 124 % of control; (dose: 6.0 mg/kg/injection, schedule: Q01DX001 (ip), vehicle: saline) 92 % of control and 121 % of control; (dose: 6.0 mg/kg/injection, schedule: Q01DX009 (ip), vehicle: water) 96 % of control; (dose: 6.25 mg/kg/injection, schedule: Q01DX001 (ip), vehicle: saline) 90 % of control; under setting [1], 124 % of control. Moreover, the T/C (dose: 10.0 mg/kg/injection, schedule: Q04DX004 (ip), vehicle: saline) is 163 % of control; the T/C (dose: 10.0 mg/kg/injection, schedule: Q04DX008 (ip), vehicle: saline) is 152 % of control and 169 % of control; the T/C (dose: 12.0 mg/kg/injection, schedule: Q01DX001 (ip), vehicle: saline with Tween-80) was 162 % of control; the T/C under setting [2] was 92 % of control and 121 % of control; the T/C (dose: 12.0 mg/kg/injection, schedule: Q04DX003 (ip), vehicle: water) was 166 % of control; the T/C (dose: 12.5 mg/kg/injection, schedule: Q01DX001 (ip), vehicle: saline) was 105 % of control and 112 % of control. Besides, the T/C was 178 % of control (dose: 24.0 mg/kg/injection, schedule: Q01DX001 (ip), vehicle: saline with Tween-80); 164 % of control (dose: 30.0 mg/kg/injection, schedule: Q01DX001 (ip), vehicle: saline); 103 % of control (dose: 40.0 mg/kg/injection, schedule: Q01DX001 (ip), vehicle: saline); 206 % of control (dose: 48.0 mg/kg/injection, schedule: Q01DX001 (ip), vehicle: saline with Tween-80); 119 % of control (dose: 80.0 mg/kg/injection, schedule: Q01DX001 (ip), vehicle: saline); 375 % of control (dose: 96.0 mg/kg/injection, schedule: Q01DX001 (ip), vehicle: saline with Tween-80). Besides, the T/C is, setting by setting: (dose: 15.0 micrograms/kg/injection, schedule: Q01DX009 (ip), vehicle: saline) 113 % of control; (dose: 30.0 micrograms/kg/injection, schedule: Q01DX009 (ip), vehicle: saline) 165 % of control; (dose: 60.0 micrograms/kg/injection, schedule: Q01DX009 (ip), vehicle: saline) 150 % of control.
For the compound `CN(C)C(=O)c1cccc(COc2ccc(N3C(N)=NC(N)=NC3(C)C)cc2Cl)c1`, the T/C (dose: 0.25 mg/kg/injection, schedule: Q04DX003 (ip), vehicle: saline) was 105 % of control; the T/C (dose: 0.5 mg/kg/injection, schedule: Q04DX003 (ip), vehicle: saline) is 108 % of control; the T/C (dose: 1.0 mg/kg/injection, schedule: Q04DX003 (ip), vehicle: saline) was 97 % of control; the T/C (dose: 1.2 mg/kg/injection, schedule: Q01DX009 (ip), vehicle: saline) was 100 % of control; the T/C (dose: 1.25 mg/kg/injection, schedule: Q01DX009 (ip), vehicle: saline) was 106 % of control; the T/C (dose: 2.0 mg/kg/injection, schedule: Q04DX003 (ip), vehicle: saline) was 114 % of control. The T/C reads like this: (dose: 3.1 mg/kg/injection, schedule: Q01DX009 (ip), vehicle: saline) 100 % of control; (dose: 4.0 mg/kg/injection, schedule: Q04DX003 (ip), vehicle: saline) 114 % of control; (dose: 6.2 mg/kg/injection, schedule: Q01DX009 (ip), vehicle: saline) 94 % of control and 97 % of control and 108 % of control; (dose: 8.0 mg/kg/injection, schedule: Q04DX003 (ip), vehicle: water) 100 % of control; under setting [1], 105 % of control; under setting [2], 112 % of control. In addition, the T/C reads like this: (dose: 15.0 mg/kg/injection, schedule: Q01DX009 (ip), vehicle: saline) 112 % of control; (dose: 16.0 mg/kg/injection, schedule: Q04DX003 (ip), vehicle: water) 109 % of control; (dose: 18.0 mg/kg/injection, schedule: Q04DX003 (ip), vehicle: saline) 109 % of control; (dose: 25.0 mg/kg/injection, schedule: Q01DX001 (ip), vehicle: saline) 112 % of control; (dose: 32.0 mg/kg/injection, schedule: Q04DX003 (ip), vehicle: water) 120 % of control; (dose: 35.0 mg/kg/injection, schedule: Q04DX003 (ip), vehicle: saline) 116 % of control and 120 % of control. The T/C (dose: 37.5 mg/kg/injection, schedule: Q04DX003 (ip), vehicle: saline) is 116 % of control and the T/C (dose: 64.0 mg/kg/injection, schedule: Q04DX003 (ip), vehicle: water) was 105 % of control.
Turning to `O=[N+]([O-])c1ccc(OCc2ccc(S(=O)(=O)F)c(Cl)c2)c(Cl)c1`, the T/C is, setting by setting: (dose: 3.0 mg/kg/injection, schedule: Q01DX009 (ip), vehicle: Klucel (hydroxypropylcellulose) (HPC)) 104 % of control; (dose: 6.0 mg/kg/injection, schedule: Q01DX009 (ip), vehicle: Klucel (hydroxypropylcellulose) (HPC)) 88 % of control; (dose: 12.0 mg/kg/injection, schedule: Q01DX009 (ip), vehicle: Klucel (hydroxypropylcellulose) (HPC)) 95 % of control; (dose: 12.5 mg/kg/injection, schedule: Q01DX009 (ip), vehicle: Klucel (hydroxypropylcellulose) (HPC)) 100 % of control; (dose: 100.0 mg/kg/injection, schedule: Q01DX001 (ip), vehicle: Klucel (hydroxypropylcellulose) (HPC)) 97 % of control; (dose: 100.0 mg/kg/injection, schedule: Q04DX003 (ip), vehicle: Klucel (hydroxypropylcellulose) (HPC)) 90 % of control. Besides, the T/C by setting is: (dose: 200.0 mg/kg/injection, schedule: Q01DX001 (ip), vehicle: Klucel (hydroxypropylcellulose) (HPC)) 97 % of control; (dose: 200.0 mg/kg/injection, schedule: Q04DX003 (ip), vehicle: Klucel (hydroxypropylcellulose) (HPC)) 88 % of control; (dose: 400.0 mg/kg/injection, schedule: Q01DX001 (ip), vehicle: Klucel (hydroxypropylcellulose) (HPC)) 90 % of control; (dose: 400.0 mg/kg/injection, schedule: Q04DX003 (ip), vehicle: Klucel (hydroxypropylcellulose) (HPC)) 90 % of control.
For the compound `Cc1cc(NS(=O)(=O)c2ccc(N)cc2)no1`, the T/C (dose: 100.0 mg/kg/injection, schedule: Q01DX001 (ip), vehicle: saline) was 110 % of control; the T/C (dose: 100.0 mg/kg/injection, schedule: Q04DX003 (ip), vehicle: other) was 95 % of control; the T/C (dose: 200.0 mg/kg/injection, schedule: Q01DX001 (ip), vehicle: saline) was 103 % of control; the T/C (dose: 200.0 mg/kg/injection, schedule: Q04DX003 (ip), vehicle: other) is 95 % of control; the T/C (dose: 400.0 mg/kg/injection, schedule: Q01DX001 (ip), vehicle: saline) is 96 % of control; the T/C (dose: 400.0 mg/kg/injection, schedule: Q04DX003 (ip), vehicle: other) was 95 % of control.
